Measurements as given in ChEMBL document CHEMBL1133070, “Novel 2,3,4,5-tetrahydro-1H-3-benzazepines with high affinity and selectivity for the dopamine D3 receptor” (Bioorg Med Chem Lett, 2000).
pKi: −log10 of the molar value.

How the values were obtained:
[1] = target: D(3) dopamine receptor (Homo sapiens, UniProt P35462); assay: biochemical; assay type: cell-based, CHO
Description: Binding affinity towards human Dopamine receptor D3 by displacement of [125I]iodosulpiride expressed in CHO cells

[2] = target: D(2) dopamine receptor (Homo sapiens, UniProt P14416); assay: biochemical; assay type: cell-based, CHO
Sequence of D(2) dopamine receptor (P14416 whole entry): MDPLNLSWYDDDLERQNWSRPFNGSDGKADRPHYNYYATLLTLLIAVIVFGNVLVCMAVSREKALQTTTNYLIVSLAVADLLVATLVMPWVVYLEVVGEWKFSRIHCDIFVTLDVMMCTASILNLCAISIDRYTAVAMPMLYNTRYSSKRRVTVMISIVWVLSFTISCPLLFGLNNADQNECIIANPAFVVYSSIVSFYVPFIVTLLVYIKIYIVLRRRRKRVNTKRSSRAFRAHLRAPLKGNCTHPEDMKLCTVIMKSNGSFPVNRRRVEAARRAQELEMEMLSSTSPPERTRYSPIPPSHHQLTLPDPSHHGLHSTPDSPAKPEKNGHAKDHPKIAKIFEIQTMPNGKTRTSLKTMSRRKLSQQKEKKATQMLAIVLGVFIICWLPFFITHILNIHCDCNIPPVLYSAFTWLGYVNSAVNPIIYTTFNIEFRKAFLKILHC
Description: Binding affinity towards human Dopamine receptor D2 by displacement of [125I]iodosulpiride expressed in CHO cells

Sequence of D(3) dopamine receptor (P35462 whole entry): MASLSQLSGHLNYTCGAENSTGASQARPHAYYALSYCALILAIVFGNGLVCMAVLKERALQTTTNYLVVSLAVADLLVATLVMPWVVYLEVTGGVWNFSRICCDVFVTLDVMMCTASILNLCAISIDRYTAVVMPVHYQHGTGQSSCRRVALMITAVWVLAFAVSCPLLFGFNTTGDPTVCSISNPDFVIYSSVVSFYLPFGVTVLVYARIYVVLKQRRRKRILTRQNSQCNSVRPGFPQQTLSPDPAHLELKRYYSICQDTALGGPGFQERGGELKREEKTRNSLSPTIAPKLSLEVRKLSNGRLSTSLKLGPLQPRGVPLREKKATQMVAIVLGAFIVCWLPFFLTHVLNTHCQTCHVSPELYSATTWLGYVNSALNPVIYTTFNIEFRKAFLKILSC

Row | pKi [1] | pKi [2] | SMILES
1 | 8.50 | 6.30 | CC(=O)Nc1cccc(/C=C/C(=O)N[C@H]2CC[C@H](CCN3CCc4ccc(C#N)cc4CC3)CC2)c1
2 | 8.20 | 6.40 | N#Cc1ccc2c(c1)CCN(CC[C@H]1CC[C@H](NC(=O)/C=C/c3ccc(F)cc3)CC1)CC2
3 | 8.00 | 6.20 | N#Cc1ccc2c(c1)CCN(CC[C@H]1CC[C@H](NC(=O)/C=C/c3ccccc3F)CC1)CC2
4 | 8.40 | 6.70 | CC(=O)c1cccc(/C=C/C(=O)N[C@H]2CC[C@H](CCN3CCc4ccc(C#N)cc4CC3)CC2)c1
5 | 8.20 | 6.40 | N#Cc1ccc2c(c1)CCN(CC[C@H]1CC[C@H](NC(=O)/C=C/c3cccc(F)c3)CC1)CC2
6 | 7.60 | 5.90 | N#Cc1ccc2c(c1)CCN(CC[C@H]1CC[C@H](NC(=O)c3ccnc4ccccc34)CC1)CC2
7 | 7.80 | 6.50 | N#Cc1ccc2c(c1)CCN(CC[C@H]1CC[C@H](NC(=O)c3cc4ccccc4[nH]3)CC1)CC2
8 | 7.70 | 5.90 | N#Cc1ccc2c(c1)CCN(CC[C@H]1CC[C@H](NC(=O)c3cccc4ccccc34)CC1)CC2
9 | 8.20 | 6.10 | N#Cc1ccc2c(c1)CCN(CC[C@H]1CC[C@H](NC(=O)c3ccc4c(c3)NC(=O)CO4)CC1)CC2
10 | 7.90 | 5.70 | N#Cc1ccc2c(c1)CCN(CC[C@H]1CC[C@H](NC(=O)c3cccc4ncccc34)CC1)CC2
11 | 8.40 | 6.30 | CC(=O)Nc1cccc(/C=C/C(=O)N[C@H]2CC[C@H](CCN3CCc4ccc(C#N)cc4CC3)CC2)c1F
12 | 8.50 | 6.20 | COc1cccc(/C=C/C(=O)N[C@H]2CC[C@H](CCN3CCc4ccc(C#N)cc4CC3)CC2)c1
13 | 8.00 | 6.30 | N#Cc1ccc2c(c1)CCN(CC[C@H]1CC[C@H](NC(=O)c3ccc4ccc(O)nc4c3)CC1)CC2

Row | SMILES | pKi [1] | pKi [2]
14 | N#Cc1ccc2c(c1)CCN(CC[C@H]1CC[C@H](NC(=O)c3ccc4ccccc4c3)CC1)CC2 | 7.70 | 5.50
